# According to US8637525B2, “Compounds for the reduction of beta-amyloid production” (Bristol-Myers Squibb Company, priority 2009, dated 2014):
# Structures can show the parent of a compound that is named as a salt. Where two headings read alike, the source gives them in different places.
# Tested on: Aβ1-42 production
# Test: Cellular assay for inhibition of Aβ1-42 production (H4 APP751 SWE clone 8.20)
# Assay type: cell-based
# Settings: H4 APP751 SWE clone 8.20 cells, 19 h incubation
# Outline: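 Secreted peptide was quantified with a two-antibody homogeneous format combining Wallac-labelled 565, which recognises the Aβ42 end, and APC-labelled 26D6 at 0.8 and 75 ng/well respectively. Antibodies were diluted in 40 mM Tris-HCl, pH 7.4, 0.2% BSA and left overnight at 4 °C after a 19 h compound incubation.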
# [1] = class symbols, read-out: Activity Rating (Aβ42 cellular IC50)
# [2] = 19 h, class symbols, read-out: Activity Rating (Aβ42 cellular IC50)
# [3] = 19 h, read-out: Activity Rating (Aβ42 cellular IC50), numeric value
IC50 [1] [µM],IC50 [2] [µM],SMILES,also measured
0.0015 to 0.0099,–,"CCNc1nc(Nc2ccc(-n3cnc(Cl)c3)c(OC)c2)nc2c1CCN(C(=O)OC)C2c1ccc(F)cc1 (single isomer, unassigned) [Example 170A, methyl 2-(4-(4-chloro-1H-imidazol-1-yl)-3-methoxyphenylamino)-4-(ethylamino)-8-(4-fluorophenyl)-5,6-dihydropyrido[3,4-d]pyrimidine-7(8H)-carboxylate]",–
0.0015 to 0.0099,–,"CCNc1nc(Nc2ccc(-n3ncnc3C)c(F)c2)nc2c1CN(S(C)(=O)=O)CC2c1ccccc1 (stereo not shown) [Example 140A, N4-ethyl-N2-(3-fluoro-4-(5-methyl-1H-1,2,4-triazol-1-yl)phenyl)-6-(methylsulfonyl)-8-phenyl-5,6,7,8-tetrahydropyrido[4,3-d]pyrimidine-2,4-diamine]",–
–,> 1,"CNc1nc(Nc2ccc3c(c2)CCNC3)nc2c1CCC2c1ccccc1 (stereo not shown) [Example 245, N4-methyl-7-phenyl-N2-(1,2,3,4-tetrahydroisoquinolin-6-yl)-6,7-dihydro-5H-cyclopenta[d]pyrimidine-2,4-diamine]",–
0.1 to 1,–,"CNc1nc(Nc2ccc(-n3ncnc3C)c(OC)c2)nc2c1CN(C)CC2c1ccc(F)cc1 (stereo not shown) [Example 199A, 8-(4-fluorophenyl)-N2-(3-methoxy-4-(5-methyl-1H-1,2,4-triazol-1-yl)phenyl)-N4,6-dimethyl-5,6,7,8-tetrahydropyrido[4,3-d]pyrimidine-2,4-diamine]",–
–,> 1,"CNc1nc(Nc2ccncc2)nc2c1CCC2c1ccccc1 (stereo not shown) [Example 224, N4-methyl-7-phenyl-N2-(pyridin-4-yl)-6,7-dihydro-5H-cyclopenta[d]pyrimidine-2,4-diamine]",–
–,0.0015 to 0.0099,"CCNc1nc(Nc2ccc(-n3cnc(C)n3)c(F)c2)nc2c1CN(S(C)(=O)=O)CC2c1ccc(F)cc1 (stereo not shown) [Example 156, N4-ethyl-N2-(3-fluoro-4-(3-methyl-1H-1,2,4-triazol-1-yl)pheny)-8-(4-fluorophenyl)-6-(methylsulfonyl)-5,6,7,8-tetrahydropyrido[4,3-d]pyrimidine-2,4-diamine]",–
0.0015 to 0.0099,–,"COc1cc(Nc2nc3c(c(N4CC(Cl)C4)n2)CCC3c2ccccc2)ccc1-n1cnc(Cl)c1 (stereo not shown) [Example 181A, N-(4-(4-chloro-1H-imidazol-1-yl)-3-methoxyphenyl)-4-(3-chloroazetidin-1-yl)-7-phenyl-6,7-dihydro-5H-cyclopenta[d]pyrimidin-2-amine]",–
–,0.01 to 0.1,"COc1cc(Nc2nc3c(c(N(C)C)n2)CN(S(C)(=O)=O)CC3c2ccccc2)ccc1-n1cnc(Cl)c1 (stereo not shown) [Example 147, N2-(4-(4-chloro-1H-imidazol-1-yl)-3-methoxyphenyl)-N4,N4-dimethyl-6-(methylsulfonyl)-8-phenyl-5,6,7,8-tetrahydropyrido[4,3-d]pyrimidine-2,4-diamine]",–

# Second part, the molecule before the results:
SMILES,IC50 [1] [µM],IC50 [2] [µM],also measured
"COc1cc(Nc2nc3c(c(N4CCC(F)(F)C4)n2)CCC3c2cc(F)c(F)c(F)c2)ccc1-n1cnc(Cl)c1 (racemic) [Example 107, N-(4-(4-Chloro-1H-imidazol-1-yl)-3-methoxyphenyl)-4-(3,3-difluoropyrrolidin-1-yl)-7-(3,4,5-trifluorophenyl)-6,7-dihydro-5H-cyclopenta[d]pyrimidin-2-amine]",–,0.01 to 0.1,–
"CNc1nc(Nc2ccc(-n3cnc(Cl)c3)c(OC)c2)nc2c1/C(=N/OC)CC2c1ccccc1 (stereo not shown) [Example 201, (E)-2-(4-(4-chloro-1H-imidazol-1-yl)-3-methoxyphenylamino)-4-(methylamino)-7-phenyl-6,7-dihydro-5H-cyclopenta[d]pyrimidin-5-one O-methyl oxime]",–,–,IC50 [3]: 0.0053 µM
"CNc1nc(Nc2ccc(-n3cnc(C)n3)c(F)c2)nc2c1CCC2c1ccc(F)cc1 (stereo not shown) [Example 35, N^2-(3-fluoro-4-(3-methyl-1H-1,2,4-triazol-1-yl)phenyl)-7-(4-fluorophenyl)-N^4-methyl-6,7-dihydro-5H-cyclopenta[d]pyrimidine-2,4-diamine]",–,0.0015 to 0.0099,–
"CCN(C)c1nc(Nc2ccc(-n3cnc(Cl)c3)c(OC)c2)nc2c1COCC2c1ccc(F)cc1 (stereo not shown) [Example 62B, N2-(4-(4-chloro-1H-imidazol-1-yl)-3-methoxyphenyl)-N4-ethyl-8-(4-fluorophenyl)-N4-methyl-7,8-dihydro-5H-pyrano[4,3-d]pyrimidine-2,4-diamine]",–,–,IC50 [3]: 0.086 µM
"COc1cc(Nc2nc3c(c(N4CCC(N(C)C)C4)n2)CCC3c2ccc(F)cc2)ccc1-n1cnc(Cl)c1 (single isomer, unassigned) [Example 29B, N-(4-(4-chloro-1H-imidazol-1-yl)-3-methoxyphenyl)-4-(3-(dimethylamino)pyrrolidin-1-yl)-7-(4-fluorophenyl)-6,7-dihydro-5H-cyclopenta[d]pyrimidin-2-amine]",0.01 to 0.1,–,–
"COc1cc(Nc2nc3c(c(N4CCC(O)(C(F)(F)F)C4)n2)CCC3c2ccc(F)cc2)ccc1-n1cnc(Cl)c1 (single isomer, unassigned) [Example 28A, 1-(2-(4-(4-chloro-1H-imidazol-1-yl)-3-methoxyphenylamino)-7-(4-fluorophenyl)-6,7-dihydro-5H-cyclopenta[d]pyrimidin-4-yl)-3-(trifluoromethyl)pyrrolidin-3-ol]",0.01 to 0.1,–,–
"COc1cc(Nc2ncc3c(n2)C(c2ccccc2)CCC3)ccc1-n1cnc(Cl)c1 (stereo not shown) [Example 125, N-(4-(4-chloro-1H-imidazol-1-yl)-3-methoxyphenyl)-8-phenyl-5,6,7,8-tetrahydroquinazolin-2-amine]",–,0.01 to 0.1,–
"CCC1CCCN1c1nc(Nc2ccc(-n3cnc(Cl)c3)c(OC)c2)nc2c1CCC2c1ccc(F)cc1 (single isomer, unassigned) [Example 24A, N-(4-(4-chloro-1H-imidazol-1-yl)-3-methoxyphenyl)-4-(2-ethylpyrrolidin-1-yl)-7-(4-fluorophenyl)-6,7-dihydro-5H-cyclopenta[d]pyrimidin-2-amine]",0.01 to 0.1,–,–
"COc1cc(Nc2nc3c(c(N4CC(F)(F)C4)n2)COC3c2ccc(F)cc2)ccc1-n1cnc(Cl)c1 (racemic) [Example 80, N-(4-(4-chloro-1H-imidazol-1-yl)-3-methoxyphenyl)-4-(3,3-difluoroazetidin-1-yl)-7-(4-fluorophenyl)-5,7-dihydrofuro[3,4-d]pyrimidin-2-amine]",–,0.01 to 0.1,–
"COc1cc(Nc2nc3c(c(N4CC(F)(F)C4)n2)COCC3c2ccc(F)cc2)ccc1-n1cnc(Cl)c1 (stereo not shown) [Example 63A, N-(4-(4-chloro-1H-imidazol-1-yl)-3-methoxyphenyl)-4-(3,3-difluoroazetidin-1-yl)-8-(4-fluorophenyl)-7,8-dihydro-5H-pyrano[4,3-d]pyrimidin-2-amine]",0.01 to 0.1,–,–
"Cc1ncnn1-c1ccc(Nc2nc3c(c(N4CC(F)(F)C4)n2)CCC3c2ccc(F)cc2)cc1F (single isomer, unassigned) [Example 16A, 4-(3,3-difluoroazetidin-1-yl)-N-(3-fluoro-4-(5-methyl-1H-1,2,4-triazol-1-yl)phenyl)-7-(4-fluorophenyl)-6,7-dihydro-5H-cyclopenta[d]pyrimidin-2-amine]",0.0015 to 0.0099,–,–
"COc1cc(Nc2nc3c(c(N4CCC(O)(C(F)(F)F)C4)n2)CCC3c2ccc(F)cc2)ccc1-n1cnc(Cl)c1 (single isomer, unassigned) [Example 27, 1-(2-(4-(4-chloro-1H-imidazol-1-yl)-3-methoxyphenylamino)-7-(4-fluorophenyl)-6,7-dihydro-5H-cyclopenta[d]pyrimidin-4-yl)-3-(trifluoromethyl)pyrrolidin-3-ol]",–,0.01 to 0.1,–
"CCN(C)c1nc(Nc2ccc(-n3cnc(Cl)c3)c(OC)c2)nc2c1CCCC2c1ccccc1 (single isomer, unassigned) [Example 124A, N^2-(4-(4-Chloro-1H-imidazol-1-yl)-3-methoxyphenyl)-N^4-ethyl-N^4-methyl-8-phenyl-5,6,7,8-tetrahydroquinazoline-2,4-diamine]",0.0015 to 0.0099,–,–
"CNc1nc(Nc2ccc(-n3cnc(Cl)c3)c(OC)c2)nc2c1CCC2c1cc(F)c(F)c(F)c1 (racemic) [Example 103, N^2-(4-(4-chloro-1H-imidazol-1-yl)-3-methoxyphenyl)-N^4-methyl-7-(3,4,5-trifluorophenyl)-6,7-dihydro-5H-cyclopenta[d]pyrimidine-2,4-diamine]",–,0.0015 to 0.0099,–
"COc1cc(Nc2nc3c(c(N4CC[C@@H](F)C4)n2)COC3c2ccc(F)cc2)ccc1-n1cnc(Cl)c1 (single isomer, unassigned) [Example 83B]",0.01 to 0.1,–,–
"CCN(C)c1nc(Nc2ccc(-n3cnc(Cl)c3)c(OC)c2)nc2c1COCC2c1ccc(F)cc1 (stereo not shown) [Example 62A, N2-(4-(4-chloro-1H-imidazol-1-yl)-3-methoxyphenyl)-N4-ethyl-8-(4-fluorophenyl)-N4-methyl-7,8-dihydro-5H-pyrano[4,3-d]pyrimidine-2,4-diamine]",–,0.0015 to 0.0099,–
"Cc1ccc(C(C)C)cc1Nc1nc(Nc2ccc(C#N)cc2)nc2c1CCC2c1ccccc1 (stereo not shown) [Example 215B, 4-(4-(5-isopropyl-2-methylphenylamino)-7-phenyl-6,7-dihydro-5H-cyclopenta[d]pyrimidin-2-ylamino)benzonitrile]",–,–,IC50 [3]: 0.173 µM
"CNc1nc(Nc2ccc(C#N)cc2)nc2c1CCC2c1ccccc1 (stereo not shown) [Example 225, 4-(4-(methylamino)-7-phenyl-6,7-dihydro-5H-cyclopenta[d]pyrimidin-2-ylamino)benzonitrile]",–,–,IC50 [3]: 0.018 µM
"COc1cc(Nc2nc3c(c(N4CC(F)(F)C4)n2)COCC3c2ccc(F)c(F)c2)ccc1-n1cnc(Cl)c1 (racemic) [Example 114, N-(4-(4-chloro-1H-imidazol-1-yl)-3-methoxyphenyl)-4-(3,3-difluoroazetidin-1-yl)-8-(3,4-difluorophenyl)-7,8-dihydro-5H-pyrano[4,3-d]pyrimidin-2-amine, TFA]",–,0.0015 to 0.0099,–
"CNc1nc(Nc2ccc(-n3cnc(Cl)c3)c(OC)c2)nc2c1CCC2c1ccc(F)cc1 (single isomer, unassigned) [Example 11B, N^2-(4-(4-Chloro-1H-imidazol-1-yl)-3-methoxyphenyl)-7-(4-fluorophenyl)-N^4-methyl-6,7-dihydro-5H-cyclopenta[d]pyrimidine-2,4-diamine]",–,0.0015 to 0.0099,–
